Legend:
[1] = intraosseous infusion; cited from earlier work
stem cells = details: novel dual-lumen device with lidocaine infusion, without pressure modulation; live porcine model, N=4, control single-hole device
Description: The colony forming unit (CFU) assay is an accepted measure of relative stem cell concentrations in BMA. […] A preliminary (N=4) trial of BMA in a live porcine model was performed comparing a single-hole cancer aspiration device to the novel dual-lumen BMA method.

CCN(CC)CC(=O)Nc1c(C)cccc1C [lidocaine]
whole-bone anesthesia [1]: effective in whole-bone anesthesia | CFU/mL of aspirate versus control (stem cells): more than doubled
